Data taken from paper PMC8054307 (The Journal of pharmacy and pharmacology, 2018).
Entries after “also recorded” stand apart in the source; their conditions may differ.

Key:
[1] = Pharmacokinetic study of CdG in rats after i.v. and p.o. administration; assay type: in vivo, Male Sprague-Dawley rats; settings: 1 mg/kg; for half-life: t1/2, rats
[2] = Pharmacokinetic study of CdG and ETV oral co-administration in rats; assay type: in vivo; settings: male, Sprague-Dawley, rat, plasma, 1 mg/kg
[3] = Tissue distribution of CdG to liver and kidney in rats; assay type: in vivo, Male Sprague-Dawley rats; settings: 9 h after i.v. or p.o. 1 mg/kg
[4] = Urinary excretion of CdG in rats; assay type: in vivo, Male Sprague-Dawley rats; settings: for amount of unchanged CdG accumulated in urine: 9 h after administration
[5] = Protein binding by ultrafiltration, human plasma; assay type: in vitro ADME; settings: pooled human plasma
[6] = target: human serum albumin (HSA) (Homo sapiens, UniProt P02768); assay: Protein binding by ultrafiltration, HSA; assay type: in vitro ADME; settings: 600 μM HSA, CdG 500 ng/ml
[7] = system: human α1 acidic glycoprotein (AGP); assay: Protein binding by ultrafiltration, AGP; assay type: in vitro ADME; settings: 45 μM AGP, CdG 500 ng/ml
[8] = system: cytochrome P450 (CYP450) enzyme system; assay: Metabolism by CYP450; assay type: in vitro ADME; settings: data not shown
wild-type HBV [9] = settings: read-out: half-maximal inhibitory concentration (IC50); cited from earlier work
[10] = 2 days after administration; another study of the authors, ref not given; cited from earlier work
wild-type HBV [11] = settings: oral 0.02 mg/kg/day, hu-liver-chimeric mice; cited from earlier work
ETV-resistant HBV = settings: oral 0.02 mg/kg/day, hu-liver-chimeric mice; cited from earlier work
[12] = system: cytochrome P450 (CYP450) enzyme system; settings: cited from earlier work
[13] = rat, in vivo, po; cited from earlier work
[14] = male, Sprague-Dawley, rat, plasma, iv
[15] = male, Sprague-Dawley, rat, plasma, po

Sequence of human serum albumin (HSA) (P02768 25-609): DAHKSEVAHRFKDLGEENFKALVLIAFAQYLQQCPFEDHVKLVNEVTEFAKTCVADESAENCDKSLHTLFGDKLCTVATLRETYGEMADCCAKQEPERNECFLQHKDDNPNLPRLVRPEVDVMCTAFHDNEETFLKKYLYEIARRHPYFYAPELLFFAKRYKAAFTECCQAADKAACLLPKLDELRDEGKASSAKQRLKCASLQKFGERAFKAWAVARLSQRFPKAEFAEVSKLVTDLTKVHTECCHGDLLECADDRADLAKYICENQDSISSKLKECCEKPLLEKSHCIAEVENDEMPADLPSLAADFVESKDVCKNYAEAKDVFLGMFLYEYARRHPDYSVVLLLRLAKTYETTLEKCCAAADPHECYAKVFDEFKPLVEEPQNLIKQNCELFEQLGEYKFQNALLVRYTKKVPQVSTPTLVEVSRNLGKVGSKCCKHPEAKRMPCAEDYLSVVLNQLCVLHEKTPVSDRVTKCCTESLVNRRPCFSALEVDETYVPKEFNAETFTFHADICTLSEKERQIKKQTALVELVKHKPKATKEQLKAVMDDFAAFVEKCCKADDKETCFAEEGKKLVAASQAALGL

What does the source list for N#C[C@]1(CO)O[C@@H](n2cnc3c(=O)[nH]c(N)nc32)C[C@@H]1O [CdG, 4′-cyano-2′-deoxyguanosine]?
AUC [1, 14]: 123 ± 28.1 ng·h/mL; MRT [1, 14]: 29.4 ± 3.6 min; Vd [1, 14]: 4.08 ± 0.62 L/kg; clearance [1, 14]: 141 mL/min/kg; half-life [1, 14]: 30 min; AUC [1, 15]: 90.1 ± 5.75 ng·h/mL; CL/F [1, 15]: 185 mL/min/kg; Cmax [1, 15]: 53.8 ± 8.63 ng/mL; MRT [1, 15]: 82.8 ± 7.2 min; Tmax [1, 15]: 45 min; half-life ([1]; male, Sprague-Dawley, rat, plasma, po, CdG alone): 42 min; time to reach undetectable plasma levels after administration ([1]; rats, i.v. and p.o.): ≤ 9 h; t1/2 ([1]; rats, p.o., CdG alone): 43.8 ± 7.2 min; Tmax [2]: 45 min; distribution to liver vs kidney [3]: higher levels of CdG were distributed to the liver than the kidney; also recorded: distributed to the liver rather than kidney; form excreted into the urine ([4]; LC/MS chromatographic profile of urine): unchanged form; urinary excretion, % of the given dose ([4]; i.v. 1 mg/kg, 9 h): 45%; amount of unchanged CdG accumulated in urine ([4]; i.v. 1 mg/kg): about 113 μg; amount of unchanged CdG accumulated in urine ([4]; p.o. 1 mg/kg): ~49 µg; fraction unbound at 500 ng/ml [5]: ~0.393; binding rate to HSA [6]: about 11.6 ± 0.01%; binding rate to AGP [7]: about 13.5 ± 0.01%; metabolism by CYP450 [8]: rarely metabolized by CYP450; IC50 (wild-type HBV [9]): 0.4 nM; amount accumulated in the urine, % of the given dose [10]: about 40%; replication of wild-type HBV (wild-type HBV [11]): significantly blocked; replication of ETV-resistant HBV (ETV-resistant HBV): significantly blocked

What does the source list for C=C1[C@H](CO)[C@@H](O)C[C@@H]1n1cnc2c(=O)[nH]c(N)nc21 [ETV, entecavir]?
substrate for the CYP450 enzyme system [12]: not a substrate; bioavailability [13]: approximately 78%

With CC(C)(C)C(=O)OCOP(=O)(COCCn1cnc2c(N)ncnc21)OCOC(=O)C(C)(C)C [adefovir dipivoxil] as the compound, how does the bioavailability [13] read?
Its bioavailability is “approximately 50%”.
